Series [1] in a line: Fraction unbound in human liver microsomes (fumic). The settings on record: extrapolated from value measured at 0.4 mg/mL to 0.1 mg/mL, method of Austin et al., 2002.
The conditions of series [2]: measured (0.4 mg/mL protein where stated); ref Charman et al., 2020 1; cited from earlier work.
The conditions of series [3]: 2020 1, cited from earlier work.
For series [4] the following is noted: cited from earlier work.
For series [5] the following is noted: lumefantrine: ACD labs value; ref Charman et al., 2020 1; cited from earlier work.
For series [6] the following is noted: cited from earlier work; for fu: PBPK input.
The nature of series [7]: PBPK simulation of drug-drug interactions (Simcyp V19). Further details: species or system human. The settings on record: for AUC ratios Sim/Obs: ratio of simulated to clinically observed AUC ratio. The text has this: Here, we provide three example applications where the available PBPK models were used to address questions relating to DDI assessment. […] Additional simulation methods are provided in Appendix S1.
(§1) All simulations, including the ones performed for the applications, were run using Version 19 of the Simcyp population-based PBPK simulator (Simcyp (Certara), Sheffield, UK) and unless stated otherwise, input parameters for all drugs are as specified (Supplementary Information Table S1). All simulations were run using ten virtual trials that were matched as closely as possible to the clinical study volunteers in terms of the number of subjects, their age, the proportion of males/females and according to the same study design.

For series [8] the following is noted: cited from earlier work; for CL renal: PBPK input, ref amodiaquine, DEAQ Winstanley et al., atovaquone Rolan et al., 1997 14, azithromycin Lalak et al., 1993 23, carboxyprimaquine Mihaly et al., 1985 26, chloroquine Walker et al., 1987 29, DHA EMA Website, 44, doxycycline Raghuram et al., 1982 48, Nguyen et al., 1989 49, mefloquine Schwartz et al., 1982 57, primaquine White, 1985 62, pyrimeth; for CL renal / CL PO: 1987 9, proguanil Jeppesen et al., 1997 34; for CL PO: clinically observed oral (in vivo) clearance, pyronaridine: blood, ref amodiaquine Winstanley et al., DEAQ Akande et al., 2015 8, Scarsi et al., 2014 35, Tarning et al., 2012 36, Orrell et al., 2008 37, DHA Na-Bangchang et al., 2004 42, lumefantrine Lefevre et al., 2002 52, Hoglund et al., 2015 53, mefloquine Charles et al., 2007 56, pyronaridine Jittama.

A further series in a line: in vitro. The settings on record: human, plasma.
For series [9] the following is noted: cited from earlier work. This is another data set of the same source.
Series [10] in a line: Blood to plasma ratio (B:P). To be noted: PBPK input; 0.55 = no uptake into RBC for a haematocrit of 45%.
The nature of series [11]: Hepatic / HLM intrinsic clearance, enzyme not defined. To be noted: for fm additional / undefined metabolism: human.
The nature of series [12]: In vitro flags for victim and perpetrator properties conferring DDI liability. The settings on record: in vitro flag, mainly based on in vitro determinations. Format: in vitro ADME, human.
Series [13] is described as follows: PBPK simulation of plasma Cmax and AUC (Simcyp V19). The settings on record: single oral dose named in the block. Details: species or system human.
Excerpt: as §1
The available clinical PK data for performance verification of simulations was largely in healthy volunteers of either Caucasian or South-East Asian (Thai or Vietnamese) descent. For Caucasian subjects the default Sim-Healthy Volunteers virtual population was used without modification. […] The case study simulations presented in this paper used the Sim-Healthy Volunteers virtual population.

Another series has as its target CYP3A4 (Homo sapiens, UniProt P08684). The text has this:
(§2) In nearly all cases the fraction of systemic elimination metabolised by a given enzyme (fm) determined in vitro was unavailable in the literature.

A further series concerns Caco-2 cells. The settings on record: calibrated against propranolol; plasma as medium for atovaquone and piperaquine; ref Charman et al., 2020 1; cited from earlier work.
The target in another series is CYP2C19 (Homo sapiens, UniProt P33261). Description: Metabolism by CYP2C19 (CLint, fm). Format: in vitro ADME.
CYP2C19, sequence (P33261 whole entry): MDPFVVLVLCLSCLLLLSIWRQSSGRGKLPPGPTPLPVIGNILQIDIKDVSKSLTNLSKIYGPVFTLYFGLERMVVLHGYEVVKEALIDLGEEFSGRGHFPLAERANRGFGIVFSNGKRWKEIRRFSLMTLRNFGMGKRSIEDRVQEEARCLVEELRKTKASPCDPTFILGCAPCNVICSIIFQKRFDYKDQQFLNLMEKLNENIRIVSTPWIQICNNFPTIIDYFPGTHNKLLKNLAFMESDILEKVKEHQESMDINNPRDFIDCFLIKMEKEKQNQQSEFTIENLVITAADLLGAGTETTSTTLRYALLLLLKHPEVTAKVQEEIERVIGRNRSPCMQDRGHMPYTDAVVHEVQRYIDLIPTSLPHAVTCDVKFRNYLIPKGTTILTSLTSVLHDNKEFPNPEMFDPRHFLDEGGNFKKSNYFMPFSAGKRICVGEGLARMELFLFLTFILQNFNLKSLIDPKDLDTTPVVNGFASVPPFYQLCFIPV
Excerpt: as §2

The mark [14] stands for this setting: 200 mg SD, 0-inf, ref Wattanagoon et al., 1987 17.
Where [15] appears, read: DDI of the respective line of Table S3.
[16] abbreviates: ratio of simulated to clinically observed Cmax ratio, DDI of the respective line of Table S3.
The mark [17] stands for this setting: amodiaquine 600 mg SD (Day 6) + trimethoprim 160 mg QD (7 Days), ref Akande et al., 2015 1.
Where [18] appears, read: from observed differences in metabolite formation, Jeppesen et al., 1997.

Several values for one entry are separate records, joined by “and”; a condition that tells them apart may be missing. Equal values may be shown once. Read-outs that look alike come from different tables or passages of the source.

CYP3A4, sequence (P08684 whole entry): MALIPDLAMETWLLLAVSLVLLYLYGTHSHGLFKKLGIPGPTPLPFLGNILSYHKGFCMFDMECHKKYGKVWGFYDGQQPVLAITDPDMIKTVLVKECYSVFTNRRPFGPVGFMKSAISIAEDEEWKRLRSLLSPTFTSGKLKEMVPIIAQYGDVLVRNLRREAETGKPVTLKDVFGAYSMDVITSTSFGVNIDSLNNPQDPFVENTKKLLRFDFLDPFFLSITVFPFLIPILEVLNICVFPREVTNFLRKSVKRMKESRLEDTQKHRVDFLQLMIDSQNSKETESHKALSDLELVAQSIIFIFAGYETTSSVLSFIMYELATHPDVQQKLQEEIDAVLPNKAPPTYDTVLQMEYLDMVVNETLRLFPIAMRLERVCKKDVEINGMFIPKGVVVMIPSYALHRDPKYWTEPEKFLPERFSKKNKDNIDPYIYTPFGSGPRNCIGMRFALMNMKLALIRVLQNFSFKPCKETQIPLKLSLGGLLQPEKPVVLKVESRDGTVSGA

Regarding `CC1(C)N=C(N)N=C(N)N1c1ccc(Cl)cc1` [Cycloguanil, cycloguanil], the fumic is reported as 0.911 in series [1] and 0.72 in series [2]. Moreover, the “B:P” value in series [3] (ref Charman et al.) is recorded as 0.71. Moreover, the “AUC Obs” value in [4] (200 mg QD (Day 14) EM, 0-24 h, ref Helsby et al., 1993 19) was 3.17 µg·h/mL; in series [4] (200 mg QD (Day 14) PM, 0-24 h, ref Helsby et al., 1993 19), 1.19 µg·h/mL; in series [4] (200 mg SD EM, 0-72 h, ref Helsby et al., 1993 19), 2.35 µg·h/mL; in series [4] (200 mg SD PM, 0-72 h, ref Helsby et al., 1993 19) it was 0.983 µg·h/mL; in series [4] (setting [14]) it was 0.661 µg·h/mL. In addition, in [4] (200 mg SD, ref Wattanagoon et al., 1987 17), the “Cmax Obs” value is 0.041 µg/mL. Besides, the “Log D pH 7.4” value in series [5] is 1.1. Also, in [6] (ref Charman et al., 2020 1), the fu is 0.75.

For the molecule `CCNCc1cc(Nc2ccnc3cc(Cl)ccc23)ccc1O` [DEAQ, desethylamodiaquine], the “AUC ratios Sim/Obs” value in series [7] (setting [15]) is 0.89. In series [7] (setting [16]), the “Cmax ratios Sim/Obs” value is 1.00. Further, the “B:P” value in [3] (PBPK input, ref artemether Colussi et al., 1999 11, atovaquone Rolan et al., 1997 14, Beerahee, 1999 16, Charman et al., azithromycin Pene Dumitrescu et al., 2013 21, DEAQ Winstanley et al., 1987 9, proguanil weighted mean Helsby et al., 1993 61, Wattanagoon et al., 1987 63) is 3. For the same molecule, the “AUC Obs” value in series [4] (600 mg QD (Day 3), 0-96 h, ref Scarsi et al., 2014 1) is 14.571 µg·h/mL. Besides, the “Cmax Obs” value in series [4] (600 mg QD (Day 3), ref Scarsi et al., 2014 1) was 0.495 µg/mL. Further, in series [8], the CL renal is 1.4 L/h and the “CL PO” value is 32 L/h. Besides, in the series “in vitro”, the fraction unbound – broadly, the share of the substance not bound to proteins or other matrix – came to 0.26. For the same molecule, in series [9] (setting [17]), the “AUC ratio Obs” value is 0.874 and the “Cmax ratio Obs” value is 0.75. For the same molecule, the Main binding protein entry in series [6] (ref amodiaquine, DEAQ Hietala, 2009 2, atovaquone Nixon et al., 2013 13, DHA Batty et al., 2004 41, mefloquine, tafenoquine (also AGP) Zsila et al., 2008 54) is on record as “AGP”.

Regarding `CCCCN(CCCC)CC(O)c1cc(Cl)cc2c1-c1ccc(Cl)cc1/C2=C/c1ccc(Cl)cc1` (stereo not shown) [Lumefantrine, lumefantrine], the “B:P” value in series [10] is 0.55. In addition, the “fm additional / undefined metabolism” value in series [11] was 60%. Moreover, the “Cmax ratios Sim/Obs” value in [7] (Day 7 concentrations, 480 mg BID (Day 22-24) + rifampicin 600 mg QD (Days 1-46)) was 0.23; in series [7] (setting [16]), 0.61 and 0.92 and 1.08 and 1.06. For the same molecule, the “AUC Obs” value was 418 µg·h/mL in series [4] (480 mg BID (Day 3) PM, 60-324 h, ref Huang et al., 2012 8); 383 µg·h/mL in series [4] (480 mg BID (Day 3) PM, 62-480 h, ref Lefevre et al., 2002 7); 236 µg·h/mL in series [4] (480 mg SD, 0-264 h, ref Lefevre et al., 2013 6); 207 µg·h/mL in [4] (480 mg SD, 0-inf, ref Lefevre et al., 2002 5). The “Cmax Obs” value in [4] (480 mg BID (Day 3) PM, ref Huang et al., 2012 8) is listed as 11.6 µg/mL; in [4] (480 mg BID (Day 3) PM, ref Lefevre et al., 2002 7), 10 µg/mL; in series [4] (480 mg SD, ref Lefevre et al., 2002 5) it was 7.91 µg/mL; in [4] (480 mg SD, ref Lefevre et al., 2013 6), 8.92 µg/mL. In [8], the “CL PO” value is 3.5 L/h. Further, in series [12], the “Risk as a perpetrator” value is “CYP2D6 inhibitor”. Also, in series [12], the “Risk as a victim” value is reported as “Substrate of CYP3A4”. Further, the “predicted AUC0-inf as % of the observed value” in series [13] is on record as “approximately 66%”. In series [13], the “predicted Cmax as % of the observed value” is “approximately 62%”. Also, on CYP3A4, the fmCYP3A4 turned out to be 40%. In addition, on CYP3A4 (microsomes), the “CLint CYP3A4” value stood at 0.9 µL/min/pmol. For the same molecule, in [9] (human, in vivo), the AUC reduction is given as 56%. In series [6] (ref atovaquone Mepron Prescribing Information, 2008, Nixon et al., 2013 13, Rolan et al., 1997 14, azithromycin Foulds et al., 1990 20, chloroquine Ofori-Adjei et al., 1986 27, Walker et al., 1983 28, DHA Batty et al., 2004 41 (healthy volunteers), lumefantrine CDER submission 22-269, proguanil Wattanagoon et al., 1987 63, tafenoquine Dow et al., 2020 84), the fu was 0.003.

Turning to `[H]/N=C(\N/C(=N/[H])Nc1ccc(Cl)cc1)NC(C)C` [Proguanil, proguanil], the fumic in [1] is 0.66. The “fm additional / undefined metabolism” value in series [11] stood at 25%. Besides, in [11] (retrograde calculations), the “Additional Undefined metabolism” value was 13.46 µL/min/pmol. The “AUC ratios Sim/Obs” value in series [7] (setting [15]) was 1.01 and 0.80. For the same molecule, in series [4] (200 mg QD (Day 14) EM, ref Helsby et al., 1993 19), the “Cmax Obs” value was 0.19 µg/mL. For the same molecule, the “Cmax Obs” value in series [4] (200 mg QD (Day 14) PM, ref Helsby et al., 1993 19) was 0.338 µg/mL. For the same molecule, the “AUC Obs” value in [4] (200 mg SD EM, 0-inf, ref Helsby et al., 1990 18) was 3.396 µg·h/mL. The “Cmax Obs” value in series [4] (200 mg SD EM, ref Helsby et al., 1993 19) was 0.209 µg/mL. Further, the “AUC Obs” value in series [4] (200 mg SD PM, 0-inf, ref Helsby et al., 1990 18) was 6.563 µg·h/mL. For the same molecule, the “Cmax Obs” value in series [4] (200 mg SD PM, ref Helsby et al., 1993 19) was 0.273 µg/mL. Further, in series [4] (200 mg SD, dose corrected to free base for simulations, ref Wattanagoon et al., 1987 17), the “Cmax Obs” value is 0.17 µg/mL. Besides, in [4] (setting [14]), the “AUC Obs” value was 2.975 µg·h/mL. Besides, in series [8], the CL renal was 26.64 L/h and the “CL PO” value is recorded as 86.4 L/h. For the same molecule, in [8] (in vivo), the “fe (fraction excreted unchanged in urine)” value is reported as 36%. Moreover, in [12], the “Risk as a perpetrator” value is reported as “CYP2D6 inhibitor”; the “Risk as a victim” value was “Substrate of CYP2C19 and CYP3A4”. For the same molecule, at CYP3A4, the “CLint CYP3A4 formation of cycloguanil” value is 0.013 µL/min/pmol and the fmCYP3A4 is recorded as 3%. For the same molecule, the “Caco-2 (Papp A-B)” value with Caco-2 cells is 3.5 10-6 cm/s. The molecule further gave a fmCYP2C19 at CYP2C19 (fraction metabolised used in the PBPK model (proguanil: total, all routes)) of 36%. Besides, on CYP2C19 (setting [18]), the “fmCYP2C19, additional” value is 9%; the “fmCYP2C19, formation of CPBG” value is 8%; the “fmCYP2C19, formation of cycloguanil” value is recorded as 17%. At CYP2C19 (retrograde calculations), the “CLint CYP2C19 - additional” value is 1.25 µL/min/pmol and the “CLint CYP2C19-mediated formation of 4-Chlorphenylbiguanide (CPBG)” value is given as 1.07 µL/min/pmol. Moreover, the “CLint CYP2C19-mediated formation of Cycloguanil” value at CYP2C19 (retrograde calculations from CL PO) is reported as 2.23 µL/min/pmol.

(Values after paper PMC10508484, “Development and application of a PBPK modeling strategy to support antimalarial drug development” (CPT: Pharmacometrics & Systems Pharmacology, 2023).)
